Measured values: ChEMBL document CHEMBL1201862, “PubChem BioAssay data set” (2004)
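Test compounds were applied to cells in 96-well plates for 48 hours at 5 doses. Here, GI50 denotes the concentration required for 50% inhibition of growth.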 Active and inactive are the calls of the source. Cut-off read from the data, not from the text of the source: active = GI50 up to about 1.1 µM and inactive = higher.

What was measured:
Assay in all cases: NCI-60 cell line screen, 48 h
HCT-116 = system: HCT-116
SW-620 = system: SW-620
UO-31 = system: UO-31
RPMI-8226 = system: RPMI-8226
KM12 = system: KM12
NCI/ADR-RES = system: NCI/ADR-RES
SF-539 = system: SF-539
PC-3 = system: PC-3
LOX IMVI = system: LOX IMVI
SN12C = system: SN12C
RXF 393 = system: RXF 393
MDA-MB-231 = system: MDA-MB-231
SF-295 = system: SF-295
HOP-92 = system: HOP-92
HL-60 = system: HL-60
NCI-H23 = system: NCI-H23
UACC-62 = system: UACC-62
U-251 = system: U-251
OVCAR-5 = system: OVCAR-5
SR = system: SR
HOP-62 = system: HOP-62
HT-29 = system: HT-29
NCI-H460 = system: NCI-H460
K562 = system: K562
HCC 2998 = system: HCC 2998
MOLT-4 = system: MOLT-4
SK-MEL-2 = system: SK-MEL-2
OVCAR-8 = system: OVCAR-8
786-0 = system: 786-0
MDA-MB-435 = system: MDA-MB-435
SK-OV-3 = system: SK-OV-3
HCT-15 = system: HCT-15
COLO 205 = system: COLO 205
DU-145 = system: DU-145
TK-10 = system: TK-10
A549 = system: A549
NCI-H226 = system: NCI-H226
UACC-257 = system: UACC-257
M14 = system: M14
SNB-75 = system: SNB-75
MDA-N = system: MDA-N
OVCAR-4 = system: OVCAR-4
CCRF-CEM = system: CCRF-CEM
Malme-3M = system: Malme-3M
SK-MEL-28 = system: SK-MEL-28
CAKI-1 = system: CAKI-1
IGROV-1 = system: IGROV-1
SK-MEL-5 = system: SK-MEL-5
MCF7 = system: MCF7
Hs-578T = system: Hs-578T
SNB-19 = system: SNB-19
OVCAR-3 = system: OVCAR-3
ACHN = system: ACHN
T47D = system: T47D
EKVX = system: EKVX
SF-268 = system: SF-268

## CC(C)CC(NC(=O)C(O)C(N)Cc1ccccc1)C(=O)O (stereo unspecified)
HCT-116
  GI50: > 100 µM (inactive)
SW-620
  GI50: > 100 µM (inactive)
UO-31
  GI50: 56.4 µM (inactive)
RPMI-8226
  GI50: > 100 µM (inactive)
KM12
  GI50: > 100 µM (inactive)
NCI/ADR-RES
  GI50: > 100 µM (inactive)
SF-539
  GI50: > 100 µM (inactive)
PC-3
  GI50: > 100 µM (inactive)
LOX IMVI
  GI50: > 100 µM (inactive)
SN12C
  GI50: > 100 µM (inactive)
RXF 393
  GI50: > 100 µM (inactive)
MDA-MB-231
  GI50: > 100 µM (inactive)
SF-295
  GI50: > 100 µM (inactive)
HOP-92
  GI50: > 100 µM (inactive)
HL-60
  GI50: > 100 µM (inactive)
NCI-H23
  GI50: > 100 µM (inactive)
UACC-62
  GI50: > 100 µM (inactive)
U-251
  GI50: > 100 µM (inactive)
OVCAR-5
  GI50: > 100 µM (inactive)
SR
  GI50: > 100 µM (inactive)
HOP-62
  GI50: > 100 µM (inactive)
HT-29
  GI50: > 100 µM (inactive)
NCI-H460
  GI50: > 100 µM (inactive)
K562
  GI50: > 100 µM (inactive)
HCC 2998
  GI50: > 100 µM (inactive)
MOLT-4
  GI50: > 100 µM (inactive)
SK-MEL-2
  GI50: > 100 µM (inactive)
OVCAR-8
  GI50: > 100 µM (inactive)
786-0
  GI50: > 100 µM (inactive)
MDA-MB-435
  GI50: > 100 µM (inactive)
SK-OV-3
  GI50: > 100 µM (inactive)
HCT-15
  GI50: > 100 µM
COLO 205
  GI50: > 100 µM (inactive)
DU-145
  GI50: > 100 µM (inactive)
TK-10
  GI50: > 100 µM (inactive)
A549
  GI50: > 100 µM (inactive)
NCI-H226
  GI50: > 100 µM (inactive)
UACC-257
  GI50: > 100 µM (inactive)
M14
  GI50: > 100 µM (inactive)
SNB-75
  GI50: > 100 µM (inactive)
MDA-N
  GI50: > 100 µM (inactive)
OVCAR-4
  GI50: > 100 µM (inactive)
CCRF-CEM
  GI50: > 100 µM (inactive)
Malme-3M
  GI50: > 100 µM (inactive)
SK-MEL-28
  GI50: > 100 µM (inactive)
CAKI-1
  GI50: > 100 µM (inactive)
IGROV-1
  GI50: > 100 µM (inactive)
SK-MEL-5
  GI50: > 100 µM (inactive)
MCF7
  GI50: > 100 µM (inactive)
Hs-578T
  GI50: > 100 µM (inactive)
SNB-19
  GI50: > 100 µM (inactive)
OVCAR-3
  GI50: > 100 µM (inactive)
ACHN
  GI50: > 100 µM (inactive)
T47D
  GI50: > 100 µM (inactive)
EKVX
  GI50: > 100 µM (inactive)
SF-268
  GI50: > 100 µM (inactive)

## O=C(O)c1nn(-c2ccccc2)nc1-c1nn(-c2ccccc2)nc1C(=O)O
HCT-116
  GI50: > 100 µM (inactive)
SW-620
  GI50: > 100 µM (inactive)
UO-31
  GI50: > 100 µM (inactive)
RPMI-8226
  GI50: > 100 µM (inactive)
KM12
  GI50: > 100 µM (inactive)
NCI/ADR-RES
  GI50: > 100 µM (inactive)
SF-539
  GI50: > 100 µM (inactive)
PC-3
  GI50: > 100 µM (inactive)
LOX IMVI
  GI50: > 100 µM (inactive)
SN12C
  GI50: > 100 µM (inactive)
RXF 393
  GI50: > 100 µM (inactive)
MDA-MB-231
  GI50: > 100 µM (inactive)
SF-295
  GI50: > 100 µM (inactive)
HOP-92
  GI50: > 100 µM (inactive)
HL-60
  GI50: > 100 µM (inactive)
NCI-H23
  GI50: > 100 µM (inactive)
UACC-62
  GI50: > 100 µM (inactive)
U-251
  GI50: > 100 µM (inactive)
OVCAR-5
  GI50: > 100 µM (inactive)
SR
  GI50: > 100 µM (inactive)
HOP-62
  GI50: > 100 µM (inactive)
HT-29
  GI50: > 100 µM (inactive)
NCI-H460
  GI50: > 100 µM (inactive)
K562
  GI50: > 100 µM (inactive)
HCC 2998
  GI50: > 100 µM (inactive)
MOLT-4
  GI50: > 100 µM (inactive)
SK-MEL-2
  GI50: > 100 µM (inactive)
OVCAR-8
  GI50: > 100 µM (inactive)
786-0
  GI50: > 100 µM (inactive)
MDA-MB-435
  GI50: > 100 µM (inactive)
SK-OV-3
  GI50: > 100 µM (inactive)
HCT-15
  GI50: > 100 µM
COLO 205
  GI50: > 100 µM (inactive)
DU-145
  GI50: > 100 µM (inactive)
TK-10
  GI50: > 100 µM (inactive)
A549
  GI50: > 100 µM (inactive)
NCI-H226
  GI50: > 100 µM (inactive)
UACC-257
  GI50: > 100 µM (inactive)
M14
  GI50: > 100 µM (inactive)
MDA-N
  GI50: > 100 µM (inactive)
OVCAR-4
  GI50: > 100 µM (inactive)
CCRF-CEM
  GI50: > 100 µM (inactive)
Malme-3M
  GI50: > 100 µM (inactive)
SK-MEL-28
  GI50: > 100 µM (inactive)
CAKI-1
  GI50: > 100 µM (inactive)
IGROV-1
  GI50: > 100 µM (inactive)
SK-MEL-5
  GI50: > 100 µM (inactive)
MCF7
  GI50: > 100 µM (inactive)
Hs-578T
  GI50: > 100 µM (inactive)
SNB-19
  GI50: > 100 µM (inactive)
OVCAR-3
  GI50: > 100 µM (inactive)
ACHN
  GI50: > 100 µM (inactive)
T47D
  GI50: > 100 µM (inactive)
EKVX
  GI50: > 100 µM (inactive)
SF-268
  GI50: > 100 µM (inactive)
